Laboratory results taken from ChEMBL document CHEMBL1125599, “Cholinergic activity of acetylenic imidazoles and related compounds” (J Med Chem, 1991).

Legend:
[1] = tested on: Mus musculus; assay: ED50 value determined as oxotremorine antagonism by measuring salivation in mice (in vivo); format: functional
[2] = tested on: Mus musculus; assay: ED50 value as cholinergic agonism by measuring lacrimation in mice (in vivo); format: functional
[3] = tested on: Mus musculus; assay: ED50 value as cholinergic agonist by measuring salivation in mice (in vivo); format: functional
[4] = tested on: Mus musculus; assay: ED50 value as cholinergic agonist by measuring tremors in mice (in vivo); format: functional
[5] = tested on: Mus musculus; assay: ED50 value determined as oxotremorine antagonism by measuring lacrimation in mice (in vivo); format: functional
[6] = target: Muscarinic acetylcholine receptor; assay: Binding affinity to muscarinic acetylcholine receptor was determined in presence of [3H]OXO-M radioligand (in vitro); format: protein assay
[7] = target: Muscarinic acetylcholine receptor; assay: Binding affinity to muscarinic acetylcholine receptor was determined in presence of [3H]QNB radioligand (in vitro); format: protein assay
[8] = tested on: Mus musculus; assay: ED50 value determined as oxotremorine antagonism by measuring tremors in mice (in vivo); format: functional
[9] = target: Muscarinic acetylcholine receptor (Rattus norvegicus) (UniProt P08482+P08483+P08485+P08911+P10980); assay: Ratio of Ki value for QNB to that of Ki value for Oxo-M.; format: protein assay

SMILES | Ki [6] [nM] | Ki [7] [nM] | Ki ratio [9] | ED50 [1] [mg/kg] | ED50 [2] [mg/kg] | ED50 [3] [mg/kg] | ED50 [4] [mg/kg] | ED50 [5] [mg/kg] | ED50 [8] [mg/kg]
CC(=O)N(C)C(C)C#CCn1ccnc1C (stereo not drawn) | 1.6 | 19 | 12 | 0.2 | > 100 | > 100 | > 100 | 0.05 | –
COC(=O)N(C)CC#CCN(C)C | 19 | > 10000 | – | > 30 | 9.7 | 14.3 | 17.3 | > 30 | > 30
CN1CCN(CC#CCN2CCCC2)C1=O | 2.7 | 180 | 67 | > 3 | 0.3 | 0.21 | 0.14 | > 3 | –
CC(=O)N(C)C(C)C#CCn1cncc1C (stereo not drawn) | 10 | 184 | 18 | 3.7 | > 100 | > 100 | > 100 | 1.1 | –
CC(=O)N(C)C(C)C#CCN1CCCC1 (stereo not drawn) | – | – | – | > 10 | 0.66 | 0.55 | > 10 | > 10 | –
Cn1ccn(CC#CCN2CCCC2)c1=O | 7.1 | 510 | 72 | > 10 | 6.6 | 6.6 | 3.7 | > 10 | –
CN(C)CC#CCn1ccn(C)c1=O | 37 | > 10000 | – | > 100 | 8 | 8 | 5.4 | > 100 | –
CN1CCN(CC#CCn2ccnc2)C1=O | 2.1 | 1868 | 890 | > 100 | 1.4 | 1.4 | 0.97 | > 100 | –
CC(=O)N(C)CC#CCN(C)C | 4.2 | > 10000 | – | > 10 | 1.73 | 1.73 | 0.97 | > 10 | > 10
O=C1NCCN1CC#CCN1CCCC1 | 13 | 800 | 62 | > 3 | > 3 | > 3 | – | > 3 | > 3

More lines, main results first:

Ki [6] [nM] | Ki [7] [nM] | Ki ratio [9] | SMILES | ED50 [1] [mg/kg] | ED50 [2] [mg/kg] | ED50 [3] [mg/kg] | ED50 [4] [mg/kg] | ED50 [5] [mg/kg] | ED50 [8] [mg/kg]
35 | > 10000 | – | Cn1ccn(CC#CCn2ccnc2)c1=O | > 100 | 4.4 | 3.7 | 4.5 | > 100 | –
> 10000 | > 10000 | – | O=C1CCCN1CC#CCn1cccn1 | > 100 | > 100 | > 100 | > 100 | > 100 | > 100
12 | 1500 | 125 | CC(=O)N(C)C(C)C#CCn1ccnc1 (stereo not drawn) | > 100 | 3 | 3 | 2 | > 100 | –
206 | > 10000 | – | CCOC(=O)N(C)CC#CCn1ccnc1 | 97 | > 100 | > 100 | > 100 | 97 | > 100
62 | > 10000 | – | O=C1NCCN1CC#CCn1ccnc1 | > 100 | 30 | 17.3 | – | > 100 | > 100
120 | 4009 | 33 | CC(C#CCn1ccnc1)N1CCN(C)C1=O (stereo not drawn) | 21 | > 100 | – | 97 | 21 | > 100
14.6 | > 10000 | – | CN(C)C(=O)N(C)CC#CCn1ccnc1 | > 100 | – | 25.4 | 11.8 | 11.8 | > 100
1.3 | 600 | 460 | O=C1CCCN1CC#CCn1ccnc1 | > 100 | 0.45 | 0.45 | 0.45 | > 100 | –
138 | > 10000 | – | Cc1cncn1CC#CCN1CCNC1=O | 66 | > 100 | > 100 | – | 21 | > 100
1.92 | > 10000 | – | CC(=O)N(C)CC#CCn1ccnc1 | > 100 | 1.4 | 1.4 | 0.97 | > 100 | –
82 | > 10000 | – | Cc1cncn1CC#CCN(C)C(=O)N(C)C | 11.8 | > 100 | – | 45.2 | 9.7 | > 100
